{"source": "paper PMC9673926", "about": "“Nucleotide binding as an allosteric regulatory mechanism for Akkermansia muciniphila β-N-acetylhexosaminidase Am2136” (Gut Microbes, 2022)", "key": {"Am2136 WT": {"molecular_target": "T1, Am2136 WT (Akkermansia muciniphila, UniProt B2UPR7)", "T1 construct": "The coding region (residue Q20-L756) of Am2136 without signal peptide was based on UniProt; 6XHis (N); made in house; host or cells: E. coli BL21 (DE3)", "T1 sequence (B2UPR7 20-756)": "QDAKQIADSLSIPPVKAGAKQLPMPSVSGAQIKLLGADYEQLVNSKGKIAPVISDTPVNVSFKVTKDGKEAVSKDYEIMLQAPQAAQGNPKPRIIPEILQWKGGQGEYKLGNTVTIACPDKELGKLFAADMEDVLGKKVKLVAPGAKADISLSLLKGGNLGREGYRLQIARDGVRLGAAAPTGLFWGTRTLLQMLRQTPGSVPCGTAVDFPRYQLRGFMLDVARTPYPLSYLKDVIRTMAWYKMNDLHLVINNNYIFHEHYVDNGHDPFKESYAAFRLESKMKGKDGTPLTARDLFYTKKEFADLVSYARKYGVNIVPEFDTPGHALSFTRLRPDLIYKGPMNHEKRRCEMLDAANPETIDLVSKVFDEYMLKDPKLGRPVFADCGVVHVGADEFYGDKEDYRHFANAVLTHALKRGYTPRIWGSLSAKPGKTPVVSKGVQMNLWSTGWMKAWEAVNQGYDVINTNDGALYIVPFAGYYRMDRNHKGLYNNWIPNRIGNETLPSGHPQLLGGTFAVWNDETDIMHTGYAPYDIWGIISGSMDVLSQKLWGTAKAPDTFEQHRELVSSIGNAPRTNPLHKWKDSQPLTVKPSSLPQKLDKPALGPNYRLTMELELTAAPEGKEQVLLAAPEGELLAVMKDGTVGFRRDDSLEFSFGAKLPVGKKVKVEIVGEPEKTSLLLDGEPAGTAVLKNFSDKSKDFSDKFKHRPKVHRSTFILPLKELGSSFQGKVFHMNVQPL", "test": "Nucleotide binding affinity by intrinsic fluorescence", "protocol": "The nucleotide binding ability was determined on Fluorescence Spectrometer Duetta (HORIBA) by measuring the change of peak intensity. The fluorescence was excited at 286 nm and emitted at 336 nm. And the measurement was processed under 400 V voltage with 2.5 nm excitation slit and 5 nm emission slit. […] The sample was incubated at 4°C for 5 min before testing."}, "Am2136 E649A": {"molecular_target": "T2, Am2136 E649A (Akkermansia muciniphila, UniProt B2UPR7, E649A)", "T2 sequence (B2UPR7 20-756 E649A)": "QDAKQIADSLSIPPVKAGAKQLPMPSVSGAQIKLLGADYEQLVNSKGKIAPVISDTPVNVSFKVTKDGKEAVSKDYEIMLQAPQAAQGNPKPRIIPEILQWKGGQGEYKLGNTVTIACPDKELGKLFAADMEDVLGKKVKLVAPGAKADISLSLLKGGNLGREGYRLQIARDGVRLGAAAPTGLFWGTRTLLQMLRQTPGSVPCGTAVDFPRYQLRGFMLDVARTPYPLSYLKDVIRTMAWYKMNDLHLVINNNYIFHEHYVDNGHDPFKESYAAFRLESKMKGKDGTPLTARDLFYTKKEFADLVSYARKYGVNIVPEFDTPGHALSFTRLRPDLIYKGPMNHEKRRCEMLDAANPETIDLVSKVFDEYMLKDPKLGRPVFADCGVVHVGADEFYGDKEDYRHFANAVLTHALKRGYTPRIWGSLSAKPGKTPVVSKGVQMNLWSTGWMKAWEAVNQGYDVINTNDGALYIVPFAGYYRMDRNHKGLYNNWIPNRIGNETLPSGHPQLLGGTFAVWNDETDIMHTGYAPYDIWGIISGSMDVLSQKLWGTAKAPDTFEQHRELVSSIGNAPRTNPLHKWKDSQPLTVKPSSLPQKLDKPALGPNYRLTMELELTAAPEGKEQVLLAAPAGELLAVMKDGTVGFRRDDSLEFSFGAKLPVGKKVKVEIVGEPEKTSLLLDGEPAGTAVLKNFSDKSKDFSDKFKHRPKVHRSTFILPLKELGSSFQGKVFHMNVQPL", "test": "GDP regulated enzyme activity assay, mutant", "conditions": "1 mM GDP, substrate pNP-β-GlcNAc"}, "Am2136 Y327F+Y331F": {"molecular_target": "T3, Am2136 Y327F+Y331F (Akkermansia muciniphila, UniProt B2UPR7, Y327F/Y331F)", "T3 sequence (B2UPR7 20-756 Y327F/Y331F)": "T2 sequence (B2UPR7 20-756 E649A) with Y308F, Y312F, A630E", "test": "Nucleotide binding affinity by intrinsic fluorescence, mutant", "parameters": "The coding region (residue Q20-L756) of Am2136 without signal peptide was based on UniProt; 6XHis (N); made in house; host or cells: E. coli BL21 (DE3)", "protocol": "The nucleotide binding ability was determined on Fluorescence Spectrometer Duetta (HORIBA) by measuring the change of peak intensity. The fluorescence was excited at 286 nm and emitted at 336 nm. And the measurement was processed under 400 V voltage with 2.5 nm excitation slit and 5 nm emission slit. The 120 μL reaction mixture contains 0–550 μM nucleotide, 5 μM proteins, 25 mM Tris pH 8.0 and 150 mM NaCl. The sample was incubated at 4°C for 5 min before testing."}}, "note": "Changes are numbered by the printed parent chain."}
{"smiles": "Nc1nc2c(ncn2[C@@H]2O[C@H](COP(=O)(O)OP(=O)(O)O)[C@@H](O)[C@H]2O)c(=O)[nH]1", "note": "[GDP]", "values": [{"measurement": "Kd", "setting": "Am2136 WT; Am2136 WT, fluorescence ex 286 nm/em 336 nm", "value": 116, "unit": "µM"}, {"measurement": "Kd", "setting": "Am2136 WT; WT dialyzed (EDTA treated)", "value": "114 ± 5.22", "unit": "µM"}, {"measurement": "Kd", "setting": "Am2136 WT; WT dialyzed + Ca^2+", "value": "117 ± 4.37", "unit": "µM"}, {"measurement": "Kd", "setting": "Am2136 WT; WT dialyzed + Mg^2+", "value": "118 ± 5.85", "unit": "µM"}, {"measurement": "Vmax", "setting": "Am2136 E649A", "value": "453 ± 6", "unit": "µmol/min"}, {"measurement": "Kd", "setting": "Am2136 Y327F+Y331F", "value": "175 ± 13.7", "unit": "µM"}]}
